Measurements from patent US20090181953A1, “COMPOUND FORMS AND USES THEREOF” (WYETH, priority 2008, published 2009).
Blank lines part the entries; values can stand above or below the compound they belong to.

Columns and labels:
[1] = hygroscopicity, Dynamic Vapor Sorption (DVS); format: physicochemical; settings: for water absorbed eventually (up to): 90% RH; for RH at which moisture pick-up starts: relative humidity; for Hygroscopicity: hydrochloric acid salt
Protocol: Salt forms of a compound of formula 1 were investigated with X-ray powder diffraction, DSC, TGA and microscopy. FIG. 1 illustrates X-ray patterns observed for various salt forms. FIGS. 2 and 3 present results of thermal studies performed on such salt forms. FIGS. 4 and 5 present DVS data of sulfuric and phosphoric salts. […] FIGS. 6-12 show characterization data for hydrochloride salt forms.
Dynamic Vapor Sorption (DVS) was done at 25-26° C.

[2] = solubility of hydrochloride crystal forms; format: physicochemical
[3] = target: T1, α7 nicotinic acetylcholine receptor (Rattus norvegicus, UniProt Q05941); test: functional FLIPR assay, α7 nAChR stably expressed in GH4C1 cells; format: cell-based; settings: GH4C1 cells stably transfected with rat α7 nAChR; agonist concentration range 0.001 to 30 microM
T1 construct: expressed in transfected cells
T1 sequence (Q05941 23-502): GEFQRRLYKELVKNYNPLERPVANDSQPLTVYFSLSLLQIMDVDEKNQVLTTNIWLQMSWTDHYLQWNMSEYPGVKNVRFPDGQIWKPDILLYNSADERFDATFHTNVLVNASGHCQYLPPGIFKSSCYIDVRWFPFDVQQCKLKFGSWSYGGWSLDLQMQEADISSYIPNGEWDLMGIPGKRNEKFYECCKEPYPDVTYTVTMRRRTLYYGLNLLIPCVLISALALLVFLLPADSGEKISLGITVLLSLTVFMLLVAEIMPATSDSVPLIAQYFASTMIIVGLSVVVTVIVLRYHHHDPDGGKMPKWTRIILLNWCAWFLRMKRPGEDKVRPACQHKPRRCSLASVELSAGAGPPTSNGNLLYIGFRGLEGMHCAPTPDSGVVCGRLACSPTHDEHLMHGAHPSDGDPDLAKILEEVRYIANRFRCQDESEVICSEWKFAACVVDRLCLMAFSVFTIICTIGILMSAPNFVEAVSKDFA

Compound: Sulfuric acid
- water held at 50% RH [1]: maintains 0.4%
- water held at 50% RH ([1]; listed as sulfate salt form): about 0.4%
- water held at 50% RH ([1]; listed as sulfuric salt form): about 0.4%
- gain below 70% RH ([1]; below 70% RH): 0.5%
- Hygroscopicity (in words) ([1]; listed as sulfate salt): non-hygroscopic
- Hygroscopicity (in words) ([1]; listed as sulfate salt form): low degree of hygroscopicity
- Hygroscopicity (in words) ([1]; listed as sulfuric salt form): low degree of hygroscopicity

Compound: C[N+]1(C)CCN(c2ccccc2)CC1 [DMPP]
- EC50 [3]: 980 ± 470 nM

Compound: COc1ccc(-c2cc(NC(=O)CCCCN3CCCN(C(C)=O)CC3)n[nH]2)cc1.Cl [Form II, 5-(4-acetyl-1,4-diazepan-1-yl)-N-(5-(4-methoxyphenyl)-1H-pyrazol-3-yl)pentanamide hydrochloric salt Form II]
- solubility in water (in words) [2]: considerably soluble
- water absorbed eventually (up to) [1]: up to 7%
- water held at low RH ([1]; low RH (0%)): 2%
- RH at which moisture pick-up starts [1]: about 20%

Other lines, results leading:

- solubility ([2]; MC/T, aqueous with cosolvent or surfactant or cyclodextrin): > 100 mg/mL
- water held at 50% RH ([1]; listed as Crystal Form III): (10% water
- Hygroscopicity (in words) ([1]; listed as Crystal Form III): Hygroscopic
Compound: COc1ccc(-c2cc(NC(=O)CCCCN3CCCN(C(C)=O)CC3)n[nH]2)cc1.Cl [Form III]

- water held at 50% RH ([1]; listed as Crystal Form V): (7% at RH
- Hygroscopicity (in words) ([1]; listed as Crystal Form V): Hygroscopic
Compound: COc1ccc(-c2cc(NC(=O)CCCCN3CCCN(C(C)=O)CC3)n[nH]2)cc1.Cl [Form V]

- solubility in water (in words) [2]: considerably soluble
- moisture gained at 70-100% RH ([1]; 70-100% RH, lost without significant hysteresis on decreasing RH): at least 2%
- water absorbed eventually (up to) [1]: up to 2%
- moisture gained when equilibrated at RH less than or equal to 70% ([1]; RH <= 70%): about 0.5%
- RH at which moisture pick-up starts [1]: about 50%
Compound: COc1ccc(-c2cc(NC(=O)CCCCN3CCCN(C(C)=O)CC3)n[nH]2)cc1.Cl [Form I, 5-(4-acetyl-1,4-diazepan-1-yl)-N-(5-(4-methoxyphenyl)-1H-pyrazol-3-yl)pentanamide hydrochloric salt Form I]

- melting point: 132 to 133 °C
- Hygroscopicity ([1]; crystalline solid with melting onset 125° C. (first of two such lines)): Yes
- Hygroscopicity ([1]; crystalline solid with melting onset 165° C.): Somewhat
- Hygroscopicity ([1]; crystalline solid with melting onset 185° C.): No
- Hygroscopicity ([1]; solid with three peaks: about 100, about 180 and about 200° C.): Yes
- hygroscopicity of the sample ([1]; hydrochloride salt of Example 2D, precipitated from DCM with HCl in Et2O): extreme hygroscopicity
- Hygroscopicity (in words) ([1]; listed as hydrochloride): non-hygroscopic
Compound: COc1ccc(-c2cc(NC(=O)CCCCN3CCCN(C(C)=O)CC3)n[nH]2)cc1.Cl [Hydrochloric acid, 5-(4-acetyl-1,4-diazepan-1-yl)-N-(5-(4-methoxyphenyl)-1H-pyrazol-3-yl)pentanamide hydrogen chloride]
